{"source": "patent US10759777B2", "about": "“Carbazole-containing amides, carbamates, and ureas as cryptochrome modulators” (Synchronicity Pharma, Inc., priority 2014, dated 2020)", "key": {"[1]": {"target": "isolated FAD-binding domain of human CRY1 protein (hCRY1) (Homo sapiens (Human), UniProt Q16526)", "sequence (Q16526 1-494)": "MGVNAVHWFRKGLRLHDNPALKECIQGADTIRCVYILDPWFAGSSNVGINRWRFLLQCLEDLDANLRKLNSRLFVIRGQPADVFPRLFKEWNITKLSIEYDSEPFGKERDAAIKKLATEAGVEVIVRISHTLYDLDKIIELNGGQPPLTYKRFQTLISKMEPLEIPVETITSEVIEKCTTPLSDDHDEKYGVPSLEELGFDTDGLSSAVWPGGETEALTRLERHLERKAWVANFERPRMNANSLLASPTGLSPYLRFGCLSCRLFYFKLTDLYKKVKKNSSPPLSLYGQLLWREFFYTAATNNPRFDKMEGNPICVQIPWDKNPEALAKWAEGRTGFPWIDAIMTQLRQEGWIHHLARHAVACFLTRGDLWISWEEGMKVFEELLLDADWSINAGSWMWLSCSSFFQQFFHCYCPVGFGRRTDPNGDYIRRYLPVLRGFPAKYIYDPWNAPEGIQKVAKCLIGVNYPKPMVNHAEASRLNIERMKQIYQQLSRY", "assay": "Thermal shift binding assay (differential scanning fluorimetry)", "procedure": "Binding of compounds to the isolated FAD-binding domain of human CRY1 protein (hCRY1) was determined using a differential scanning fluorimetry (‘thermal shift’) assay (Pantoliano et al. (2001) J Biomol Screening 6, 429; Niesen et al. (2007) Nature Protocols 2, 2212). The FAD-binding domain of hCRY1 (amino acid residues 1-494) with a C-terminal Myc-DDK tag (FADBD), was produced by transient transfection of HEK293T cells (Catalog # CRL-3216, American Type Culture Collection) and purified by anti-FLAG affinity chromatography (Catalog # A2220, Sigma-Aldrich). FADBD (0.5 μg per well) was incubated with dilutions of compounds in DMSO (5% DMSO final concentration in reaction) in 17.5 μl Tris-buffered saline (TBS) for 10 minutes on ice, then 2.5 μl of 8× Sypro-Orange Dye (Life Technologies) was added to each well. Triplicate wells were assayed for each compound concentration. The melting temperatures were measured in an ABI7500 quantitative PCR instrument using the melt curve mode with a thermal profile of 2 minutes at 25° C., followed by a ramp rate of 1° C./minute up to 99° C. The melting temperature for each well was determined from the first derivative of the melt curve. The change in melting temperature (ΔTm) was obtained by subtraction of the melting temperature of the FADBD in 5% DMSO alone."}, "[2]": {"test_system": "db/db mouse model of type II diabetes", "assay": "Single dose at peak or nadir of clock gene expression, OGTT in db/db mice", "type": "in vivo", "source_text": "Mice were split into two study arms, to be dosed at either the peak or nadir of Cry1 and Bmal1 gene expression. […] Mice dosed at ZT10 were fasted beginning at 8:30 am in the same manner.\n(§1) Significance was accepted when p<0.05."}, "[3]": {"test_system": "db/db mouse model of type II diabetes", "assay": "Increasing dosages of Compound 72 over 7 days in db/db mice", "type": "in vivo", "source_text": "as §1"}, "[4]": {"assay": "Pharmacokinetic analysis in ICR mice", "type": "in vivo", "conditions": "mouse, 50 mg/kg P.O.", "procedure": "Male ICR mice (weighing 30-40 g, Charles River Laboratories) were used for the experiment with n=3 mice for each experimental group (27 mice total for the study). […] Blood and liver tissue were collected at the following time points after administration: 15, 30, 60, 90 minutes, 3, 6, 12 and 24 hours. A control group of animals (TO) was also sampled. Animals were euthanized with C02 and the blood collected from the heart using cardiac puncture, transferred to an EDTA tube, and then centrifuged at 5400 rpm for 5 minutes at 4° C. The resultant plasma was frozen using dry ice and then stored at −80° C. until ready for assay. Liver tissue was removed from each animal, 0.5 g was collected in an eppendorff, frozen and submitted for pharmacokinetic measurement. […] Raw data was analyzed using WinNonLin for PK parameters (Cmax, Tmax, elimination t^1/2, MRT (mean residence time), AUC (area under the curve)−(0-last and % extrapolated)."}, "[5]": {"assay": "Pharmacokinetic analysis in SD rats", "type": "in vivo", "conditions": "plasma; rat; 50 mg/kg P.O.", "procedure": "Male SD rats (weighing 250-300 g, Charles River Laboratories) were used for the experiment with n=4 rats for each experimental group. […] Blood was collected at the following time points after administration: 15, 30, 60, 90 minutes, 3, 6, 12 and 24 hours. A pre-dose sample was also collected. Animals were cannulated by technical staff at Charles River, prior to delivery at Reset. Whole blood (0.3 ml) was collected from a cannula in the right common jugular vein at each time-point. The whole blood was transferred to an EDTA tube, and then centrifuged at 5400 rpm for 5 minutes at 4° C. The resultant plasma was frozen using dry ice and then stored at −80° C. until ready for assay. 0.9% Sodium Chloride (0.3 ml) was administered for fluid replenishment after each blood draw. 0.1 ml of Sodium Heparin (500 IU/ml) was used as a lock solution after the 12 hr time-point. Samples were assayed as described above."}}}
{"smiles": "O=C1NCCN1CC(O)Cn1c2ccc(F)cc2c2cc(F)ccc21", "note": "(stereo not shown) [Compound 72, 1-(3-(3,6-difluoro-9H-carbazol-9-yl)-2-hydroxypropyl)imidazolidin-2-one]", "values": [{"measurement": "change in melting temperature (ΔTm) of hCRY1 FADBD", "setting": "[1]", "result": "dose-dependent increase"}, {"measurement": "effect on OGTT measurement, dosed at peak", "setting": "[2]; 50 mg/kg PO single dose at ZT0, db/db mice", "result": "apparent effect"}, {"measurement": "effect on OGTT measurement, dosed at nadir", "setting": "[2]; 50 mg/kg PO single dose at ZT10, db/db mice", "result": "no effect"}, {"measurement": "reduction in glucose excursion (AUC)", "setting": "[2]; 50 mg/kg PO single dose at peak (ZT0), vs vehicle", "result": 14, "unit": "%"}, {"measurement": "reduction of HOMA-IR compared to vehicle", "setting": "[3]; 100 mg/kg PO QD 7 days", "result": 34, "unit": "%"}, {"measurement": "OGTT glucose excursion", "setting": "[3]; 10, 50, 100 mg/kg PO QD 7 days", "result": "dose dependent effect on glucose excursion"}, {"measurement": "% AUC extrapolated", "setting": "[4]; liver", "result": 0.85, "unit": "%"}, {"measurement": "Tmax (hr)", "setting": "[4]; liver", "result": "0.25 − hr"}, {"measurement": "Tmax (hr)", "setting": "[4]; plasma", "result": "0.25 − hr"}, {"measurement": "% AUC extrapolated", "setting": "[5]", "result": 3.3, "unit": "%"}]}
